# In PMC3968128, “Broadly Reactive Human CD8 T Cells that Recognize an Epitope Conserved between VZV, HSV and EBV” (PLoS Pathogens, 2014):
# Ends that are not written are not given here.
# Key:
# [1] = test system: PBMCs from HLA-A*0201+ volunteers; assay: Ex vivo IFN-γ ELISpot assay; type: cell-based, human; settings: individual peptides at 10 µg/ml; 20 h, 37°C
# Source text: We recruited 21 HLA-A*0201 positive volunteers with a history of primary VZV infection, detectable VZV IgG but no previous VZV vaccination or clinical evidence of recent reactivation (Table 1). The median age was 63 years (range 25–77 years). Epitope predictions in the context of HLA-A*0201 were made using the Immune Epitope Database consensus prediction tool with the complete published VZV sequences (Table S1). The top 0.5% of 9- and 10-mers (367 peptides) were synthesized and peptide pools screened by IFN-γ ELISpot using PBMCs from each subject. In 15/21 subjects, the same peptide pool induced positive responses (Figure 1a). […] Tetramer+ cells were detected in 12/21 subjects with frequencies ranging from 0.01% to 1.8% of CD8 T cells (Figure 1d). ILI was thus identified as an immunodominant HLA-A*0201-restricted class I epitope.
# Gamma interferon (IFN-γ) enzyme-linked immunospot (ELISpot) assays were performed using 2×10^5 PBMC stimulated with peptide pools (10 µg/ml/peptide). Peptide pools yielding positive responses were deconvoluted, by testing individual peptides at 10 µg/ml. After 20 h of incubation at 37°C, plates were developed, and responses were calculated. Positive wells contained ≥20 spot-forming units (SFU)/10^6 cells and a P value of ≤0.05 using a Student's t test in at least 2 experiments.
# [2] = molecular target: T1, HLA A*02:01 class I molecules (Homo sapiens, UniProt P04439, D140Y/D185E/D98H/E176V/E277Q/G131W/G231S/I119V/I121R/I166T/I218V/L300P/L318F/N151K/N90K/P208A/P217A/Q86G/Q94H/R138H/R169H/T345S); assay: MHC-peptide binding assay, inhibition of binding of radiolabeled standard peptide; settings: inhibition of binding of radiolabeled HBV core 18–27 analogue […]; purified MHC from JY cells; six concentrations, three or more independent assays; read-out: Measured affinity IC50
# T1 construct: endogenous in cells; host or cells: JY (EBV-transformed homozygous B cell line)
# Source text: Quantitative assays to measure the binding of peptides to HLA A*02:01 class I molecules are based on the inhibition of binding of a radiolabeled standard peptide (HBV core 18–27 analogue, […]). MHC molecules were purified by affinity chromatography from the EBV transformed homozygous cell line JY, and assays performed, as described previously. […] Under the conditions used, where [radiolabeled probe] < [MHC] and IC50 ≥ [MHC], the measured IC50 values are reasonable approximations of the true Kd values.
Sequence,IFN-γ production (individual peptides) [1],IC50 [2] [nM]
MILIEGIFFV [10-mer candidate peptide from ribonucleotide reductase subunit 2 (RNR2) of VZV],strongly induced IFN-γ production,
LLIEGIFFI,,0.12
ILIEGVFFA,,0.16
ILIEGIFFV,,0.03
ILIEGIFFA,,0.15
